Results published in patent US20200405687A1, “METHODS FOR THE TREATMENT OF INFECTION” (Corbus Pharmaceuticals, Inc., priority 2016, published 2020).
Entries after “also recorded” stand apart in the source; their conditions may differ.

Columns and labels:
Pseudomonas aeruginosa = Pseudomonas aeruginosa agarose bead lung infection in Cftr KO and WT mice (Example 2); type: in vivo
Experimental: A limited number of both WT (C57BL/6J, n=5) and Cftr KO (congenic-homologous, DelF508-FABP gut corrected animals, n=5) were evaluated for safety, toxicity, and efficacy upon oral dosing of 5 mg/kg ajulemic acid BID. As controls, PA infected WT C57BL/6J and Cftr KO mice were given the 2% methylcellulose vehicle. Cftr KO and WT animals in this study were followed daily for clinical score and weights for 10 days. At Day 10, animals were euthanized and evaluated for bacteria load (colony forming units, cfus), total bronchoalveolar lavage (BAL) white blood cell counts (WBCs), and differential cell counts.
Mice were inoculated with Pseudomonas aeruginosa (PA) agaroses beads in the lungs and then treated twice daily with oral doses of ajulemic acid at 1 mg/kg and 5 mg/kg. Ajulemic acid was then administered by gavage at 1 mg/kg or 5 mg/kg dose BID in 2% methylcellulose for 10 days starting 24 hours after establishing chronic Pseudomonas aeruginosa (PA) infection. The study included 4 groups:
1) C57BL/6J+vehicle (WT DIL, n=5),
2) C57BL/6J+5 mg/kg ajulemic acid BID (WT AJ, n=5),
3) Cftr KO+vehicle (CF DIL, n=5), and
4) Cftr KO+5 mg/kg ajulemic acid BID (CF AJ, n=5),
and all animals were chronically infected with Pseudomonas aeruginosa using a standard agarose bead model.

[1] = test system: UV-killed Escherichia coli; assay: Skin challenge (blister) model, intradermal UV-killed E. coli in healthy volunteers (Example 3); type: in vivo, humans; details: for infiltration of neutrophils at the site of inflammation (blister exudate): 4 h and 10 h
Experimental: The ability of administration of a pharmaceutical composition including ajulemic acid to treat infection was assayed in a skin challenge model. A self-resolving acute inflammatory response was triggered by the intradermal injection of UV-killed Escherichia coli into the forearm of healthy volunteers. […] This study was performed to determine whether ajulemic acid promotes the resolution of infection at the site of inflammation, thereby treating that infection.
Cells and exudates were harvested at several time points following injection of UV-killed E. coli by applying negative pressure over the inflamed site.
The study included four experimental groups (n=10 in each group): • 1) Placebo, twice daily for four days • 2) Ajulemic acid, 5 mg, twice daily for four days • 3) Ajulemic acid, 20 mg, twice daily for four days • 4) Prednisone, 15 mg daily for four days
The volunteer (healthy males, 18-50 years) were randomly allocated to one of the above three groups and orally administered the test drug for four consecutive days. On the morning of the fourth day (after intake of the first dose), experimental acute inflammation was elicited by infection with UV-killed E. coli. The drug and the placebo were provided as capsules.
UV killed E. coli (Strain: NCTC 10418, Source: Public Health England, UK) were prepared as follows. E. coli described were grown overnight in Luria Broth (Sigma) at 37° C. The next morning, the bacteria were washed twice in sterile PBS (2500 g, 20 min, 4° C.) and resuspended in a sterile petri dish.
Bacteria were then killed by exposure to an ultraviolet light (UV) source (302 nm, ChemiDoc, trans-UV mode; Bio-Rad laboratories) for 60 min and then washed again in sterile saline. Bacterial counts were determined by optical density (OD600=0.365 equates to […] E. coli/ml). UVKEc were resuspended in a volume of sterile saline to obtain the count of 1.5×10^8/ml, aliquoted into sterile eppendorf tubes and then frozen at −80° C. until used for injections.
After disinfecting and shaving the skin, 1.5×10^7 UVKEc in 100 μl saline were injected intradermally into a marked site on the volar aspect of each forearm. To characterize the treatment of infection using ajulemic acid, each forearm was allotted to one of the predefined time-points namely 4, 8, 14, 24, 48 or 72 hours (h). Thus the effects of intradermal injection of UVKEc were allowed to progress for the duration of the time-point after which a suction blister was raised over the marked injection site, and then aspirated immediately. In summary, volunteer had two injection sites, one on each forearm, and contributed to two time points. On a separate group of volunteers, blister was raised on the naïve skin and treated as the baseline time point. Study time-points were discussed with volunteers before consenting.
Laser Doppler Imager (moor LDI-HIR, Moor Instruments Ltd, Axminster, Devon, UK) was used to quantify the blood flow at the site of infection. At predefined time points after injection of UVKEc, the forearm was placed under the scanner at a fixed distance to scan a fixed area. The scanner emits a laser beam, a portion of which is scattered by red blood cells present at the inflamed area. The scattering causes a change in frequency of the reflected light which is then detected by a photo detector. The velocity and concentration of red blood cells at the site directly affect the Doppler frequency shifts and account for the signal strength measured in arbitrary perfusion units. […] The total blood flow (measured in perfusion units) was calculated as product of number of valid pixels above background signal (Cut-off=300 perfusion units) and the mean blood flow signal over the valid pixels 11, 12.
To obtain the exudate from the site of infection, a 10 mm diameter suction blister was induced directly over the site of injection. […]

CCCCCCC(C)(C)c1cc(O)c2c(c1)OC(C)(C)[C@@H]1CC=C(C(=O)O)C[C@@H]21 [ajulemic acid, (6aR,10aR)-1-hydroxy-6,6-dimethyl-3-(2-methyl-2-octanyl)-6a,7,10,10a-tetrahydro-6H-benzo[c]chromene-9-carboxylic acid]
Survival Rate (Day 10) (Pseudomonas aeruginosa; Cftr KO (CF) mice, 5 mg/kg BID oral, n=5, vehicle 3/5, 5 mg/kg): 5/5
BAL WBC counts (Pseudomonas aeruginosa; Cftr KO mice, 5 mg/kg BID): decreased BAL WBC counts
number of alveolar macrophages (Pseudomonas aeruginosa; Cftr KO mice, 5 mg/kg BID): increase the number of alveolar macrophages
weight loss (Pseudomonas aeruginosa; Cftr KO mice, 5 mg/kg BID, P<0.01): decreased weight loss
numbers of neutrophils (Pseudomonas aeruginosa; Cftr KO mice, 5 mg/kg BID, P<0.05): decreased numbers of neutrophils
ability to resolve pulmonary infection as assessed by lung CFUs (Pseudomonas aeruginosa; Cftr KO mice, 5 mg/kg BID, Pvariance=0.002): improved the ability of the animals to resolve pulmonary infection
pro-resolving macrophages during the resolution arm of innate immune response ([1]; 5 mg or 20 mg): increases pro-resolving macrophages
IL-8 (pro-inflammatory cytokine) levels in inflammatory exudate ([1]; 5 mg or 20 mg BID, 4 hr and 10 hr, multiplex ELISA, listed as Ajulemic acid): reduce
time course of neutrophil infiltration at the site of inflammation ([1]; 20 mg ajulemic acid group, relative to placebo): neutrophil infiltration is decreased relative to placebo
rise in C-reactive protein (CRP) levels in serum ([1]; after UVKEc triggered acute inflammation, multiple time points): does not appear to inhibit the rise in C-reactive protein levels
infiltration of neutrophils at the site of inflammation (blister exudate) ([1]; ajulemic acid 5 mg or 20 mg BID, prednisone 15 mg daily, relative to placebo): decrease in the infiltration of neutrophils
infiltration of neutrophils at the site of inflammation (blister exudate) ([1]; ajulemic acid 5 mg or 20 mg BID, prednisone 15 mg daily, relative to placebo, listed as Ajulemic acid): reduce
levels of endotoxin at the site of injection ([1]; ajulemic acid 5 mg or 20 mg BID, prednisone 15 mg daily, 4 hr and 10 hr, limulus amoebocyte lysate test): decreased levels of endotoxin; also recorded: reduces levels of endotoxin
local vascular blood flow at injection site (laser Doppler) ([1]; at least 20 mg AJA BID, four days): increase in local blood flow
vasodilation ([1]; summary of blister model results): reduce vasodilation
